Patent publication US20130059850A1, “AZA-INDOLE DERIVATIVES USEFUL AS MODULATORS OF FAAH” (MERCK SHARP & DOHME CORP., priority 2010, published 2013)
pIC50: −log10 of the molar value.

Each molecule was assayed against T1, human FAAH (Fatty Acid Amide Hydrolase) (Homo sapiens, UniProt O00519) (assay: FAAH whole cell assay on CHO cells expressing human FAAH (human WC), AAMCA fluorescent substrate). Details: human FAAH_CHO whole cell.
T1 construct: The full length FAAH was subcloned into the mammalian expression vector, pcDEF.neo, using XbaI and EcoRI restriction sites; expressed in transfected cells
T1 sequence (O00519 1-579): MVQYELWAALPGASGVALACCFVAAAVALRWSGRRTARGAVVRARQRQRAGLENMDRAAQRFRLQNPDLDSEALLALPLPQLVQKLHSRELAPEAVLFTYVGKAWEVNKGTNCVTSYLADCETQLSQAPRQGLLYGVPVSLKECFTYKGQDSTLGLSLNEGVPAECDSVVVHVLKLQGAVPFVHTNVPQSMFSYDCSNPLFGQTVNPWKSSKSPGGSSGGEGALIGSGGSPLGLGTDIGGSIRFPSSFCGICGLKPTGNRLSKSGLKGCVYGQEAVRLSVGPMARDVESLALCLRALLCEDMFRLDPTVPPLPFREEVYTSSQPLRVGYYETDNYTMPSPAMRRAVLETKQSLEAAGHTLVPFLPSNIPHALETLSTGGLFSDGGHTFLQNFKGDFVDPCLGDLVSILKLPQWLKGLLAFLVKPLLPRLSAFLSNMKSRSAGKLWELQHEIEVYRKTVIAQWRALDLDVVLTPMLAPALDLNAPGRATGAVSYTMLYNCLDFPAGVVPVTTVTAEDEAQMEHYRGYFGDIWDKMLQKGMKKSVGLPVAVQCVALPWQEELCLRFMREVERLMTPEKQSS
Assay type: cell-based
Outline: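 CHO cells stably expressing full-length human FAAH, harvested with enzyme-free dissociation and resuspended at 4×10^4 cells/assay (96-well) or 1×10^4 (384-well) in 50 mM phosphate pH 8.0, 1 mM EDTA, 200 mM KCl, 0.2% glycerol, 0.1% BSA.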

Structure (SMILES)	pIC50
CC(C)(C)NS(=O)(=O)c1ccc(-c2[nH]c3ncccc3c2Sc2ccc(Cl)cc2)cc1 [Example A22]	6.43
O=C1NCc2cc(-c3[nH]c4ncccc4c3Sc3ccc(Cl)cn3)ccc21 [Example A34]	7.77
FC(F)Oc1ccc(-c2[nH]c3ncccc3c2Sc2ccc(Cl)cc2)cc1 [Example B45]	7.81
O=C(c1[nH]c2ncccc2c1Sc1ccc(Cl)cc1)N1CCc2ccncc21 [Example C12]	5.57
COc1cc(-c2nc3n(C)cccc-3c2Sc2ccc(Cl)cc2)cnc1OC [Example E8]	7.14
COc1cc(-c2[nH]c3ncccc3c2Sc2ccc(Cl)cc2)cnc1OC [Example B41]	7.79

Now from value to molecule:

pIC50	Structure (SMILES)
8.00	Cn1c2ncccc2c(Sc2ccc(Cl)cc2)c1[C@H]1CC[C@H](O)CC1 [Example E34]
7.15	Cn1cccc2c(Sc3ccc(Cl)cc3)c(-c3ccc(C(O)C(F)(F)F)cc3)nc1-2 (stereo not drawn) [Example E10]
6.36	OC1CCN(Cc2[nH]c3ncccc3c2Sc2ccc(Cl)cc2)CC1 [Example J8]

The molecules below were run against T1, human FAAH (Fatty Acid Amide Hydrolase) (assay: FAAH enzyme assay on CHO cell lysate expressing human FAAH (human LY), AAMCA fluorescent substrate). Details: human FAAH_CHO cell lysate.
Assay type: biochemical
Outline: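 CHO cell lysate expressing full-length human FAAH, preincubated with compound 15 min at 22-25° C. in pH 8.0 phosphate buffer with 200 mM KCl and 0.1% fatty-acid-free BSA. 1 μM AAMCA final, 1-3 h at room temperature; 7-amino-4-methylcoumarin release read by fluorescence (Ex 360, Em 460 nm).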

Structure (SMILES)	pIC50
CC(C)(C)NS(=O)(=O)c1ccc(-c2[nH]c3ncccc3c2Sc2ccc(Cl)cc2)cc1 [Example A22]	6.93
O=C1NCc2cc(-c3[nH]c4ncccc4c3Sc3ccc(Cl)cn3)ccc21 [Example A34]	7.91
FC(F)Oc1ccc(-c2[nH]c3ncccc3c2Sc2ccc(Cl)cc2)cc1 [Example B45]	8.48
O=C(c1[nH]c2ncccc2c1Sc1ccc(Cl)cc1)N1CCc2ccncc21 [Example C12]	5.68
COc1cc(-c2nc3n(C)cccc-3c2Sc2ccc(Cl)cc2)cnc1OC [Example E8]	7.91
COc1cc(-c2[nH]c3ncccc3c2Sc2ccc(Cl)cc2)cnc1OC [Example B41]	8.19

More lines, now with the values ahead:

pIC50	Structure (SMILES)
8.15	Cn1c2ncccc2c(Sc2ccc(Cl)cc2)c1[C@H]1CC[C@H](O)CC1 [Example E34]
7.73	Cn1cccc2c(Sc3ccc(Cl)cc3)c(-c3ccc(C(O)C(F)(F)F)cc3)nc1-2 (stereo not drawn) [Example E10]
7.10	OC1CCN(Cc2[nH]c3ncccc3c2Sc2ccc(Cl)cc2)CC1 [Example J8]
